Measured values from patent US20090018111A1, “Novel Antimicrobial Medicament” (priority 2004, published 2009).
Like-named read-outs stand apart in the source and are kept apart here.

Columns and labels:
E. coli ML1410 = experiment: Sensitivity test (agar dilution); type: cell-based, Escherichia coli; details: Escherichia coli
In short: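 Water-dissolved compounds, alone or mixed, were incorporated into Mueller Hinton agar at twofold serial concentrations. Spot inoculation used about 5 μl of about 10^6 CFU/ml suspension.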

[1] = tested on: Acinetobacter spp. Jan-99; experiment: Sensitivity test (agar dilution), clinical isolate; type: cell-based, Acinetobacter calcoaceticus and Acinetobacter lwoffi
Experimental: (§1) In addition, the antibacterial activities were tested against strains which are comparatively less sensitive to β-lactam compounds, namely clinically isolated 13 strains of Acinetobacter calcoaceticus and Acinetobacter lwoffi, clinically isolated 11 strains of Serratia marcescens, clinically isolated 12 strains of Burkholderia cepacia, and clinically isolated 15 strains of Pseudomonas aeruginosa.
(§2) According to the standard method of Japan Chemotherapeutic Society (Chemotherapy, vol. […], p 76-79 (1981)) the test was carried out using the agar dilution method. After dissolving test samples in distilled water, agar medium containing the test samples was prepared in such a manner that the final concentration became twice serial dilution by pouring serially diluted combination drug solution or a single drug solution into agar medium. As agar medium was used Mueller Hinton Agar medium (MHA). Then, each strain was cultivated over night at 37° C. in an incubator and suspended in buffered saline solution with gelatin (BSG) in the concentration of about 10^6 CFU/ml. The suspension (about 5 μl) containing test strains was inoculated to the medium containing the test samples by Micro Planter.
(§3) Each drug was weighed, and dissolved in distilled water to give a test sample. When the drugs are used in combination, two kinds of solution containing each drug were mixed so as to be various ratio of concentration to give a mixed solution. When the sample is subjected to sensitivity test, this mixed solution was diluted by twice serial dilution method.
(§4) Furthermore, when the drug is solely used, each test sample was used as it is, and diluted by twice serial dilution method from the maximum concentration to the minimum concentration.

[2] = tested on: Acinetobacter spp. 1399-2; experiment: Sensitivity test (agar dilution), clinical isolate; type: cell-based, Acinetobacter calcoaceticus and Acinetobacter lwoffi
Experimental: as §1, §2, §3, §4

[3] = tested on: Acinetobacter spp. 1398-2; experiment: Sensitivity test (agar dilution), clinical isolate; type: cell-based, Acinetobacter calcoaceticus and Acinetobacter lwoffi
Experimental: as §1, §2, §3, §4

[4] = tested on: Acinetobacter spp. Jan-54; experiment: Sensitivity test (agar dilution), clinical isolate; type: cell-based, Acinetobacter calcoaceticus and Acinetobacter lwoffi
Experimental: as §1, §2, §3, §4

[5] = tested on: Acinetobacter spp. 1338-2; experiment: Sensitivity test (agar dilution), clinical isolate; type: cell-based, Acinetobacter calcoaceticus and Acinetobacter lwoffi
Experimental: as §1, §2, §3, §4

Acinetobacter spp. 227-1 = experiment: Sensitivity test (agar dilution), clinical isolate; type: cell-based, Acinetobacter calcoaceticus and Acinetobacter lwoffi
Experimental: as §1, §2, §3, §4

Acinetobacter spp. 256 = experiment: Sensitivity test (agar dilution), clinical isolate; type: cell-based, Acinetobacter calcoaceticus and Acinetobacter lwoffi
Experimental: as §1, §2, §3, §4

[6] = tested on: Acinetobacter spp. Jan-99 (second line, r15); experiment: Sensitivity test (agar dilution), clinical isolate; type: cell-based, Acinetobacter calcoaceticus and Acinetobacter lwoffi
Experimental: as §1, §2, §3, §4

[7] = tested on: Acinetobacter spp. Jan-81; experiment: Sensitivity test (agar dilution), clinical isolate; type: cell-based, Acinetobacter calcoaceticus and Acinetobacter lwoffi
Experimental: as §1, §2, §3, §4

Acinetobacter spp. 14712 = experiment: Sensitivity test (agar dilution), clinical isolate; type: cell-based, Acinetobacter calcoaceticus and Acinetobacter lwoffi
Experimental: as §1, §2, §3, §4

[8] = ML1410, Concomitant (MEPM:SM = 1:1), read-out: MIC
[9] = ML1410, Concomitant (MEPM:SM = 1:2), read-out: MIC
[10] = ML1410, Concomitant (MEPM:SM = 1:4), read-out: MIC
[11] = ML1410, Concomitant drug (MEPM:SM = 2:1), read-out: MIC
[12] = Acinetobacter, Concomitant (ME:SM = 1:1), read-out: MIC
[13] = Acinetobacter, Concomitant (ME:SM = 2:1), read-out: MIC
[14] = Acinetobacter, alone, read-out: MIC
[15] = SPP.13992, Concomitant (ME:SM = 1:1)
[16] = SPP.13992, Concomitant (ME:SM = 1:2)
[17] = SPP.13992, Concomitant (ME:SM = 1:4)
[18] = SPP.13992, Concomitant (ME:SM = 2:1)
[19] = SPP.13982, Concomitant (ME:SM = 1:1)
[20] = SPP.13982, Concomitant (ME:SM = 1:2)
[21] = SPP.13982, Concomitant (ME:SM = 1:4)
[22] = SPP.13982, Concomitant (ME:SM = 2:1)
[23] = SPP.13382, Concomitant (ME:SM = 1:1), read-out: MIC
[24] = SPP.13382, Concomitant (ME:SM = 1:2), read-out: MIC
[25] = SPP.13382, Concomitant (ME:SM = 2:1), read-out: MIC
[26] = SPP.13382, alone, read-out: MIC
[27] = SPP.2271, Concomitant (ME:SM = 1:1)
[28] = SPP.2271, Concomitant (ME:SM = 1:2)
[29] = SPP.2271, Concomitant (ME:SM = 1:4)
[30] = SPP.2271, Concomitant (ME:SM = 2:1)
[31] = SPP.256, Concomitant (ME:SM = 1:1)
[32] = SPP.256, Concomitant (ME:SM = 1:2)
[33] = SPP.256, Concomitant (ME:SM = 1:4)
[34] = SPP.256, Concomitant (ME:SM = 2:1)
[35] = Concomitant (ME:SM = 1:1), read-out: MIC
[36] = Concomitant (ME:SM = 1:2), read-out: MIC
[37] = Concomitant (ME:SM = 2:1), read-out: MIC
[38] = SPP.14712, Concomitant (ME:SM = 1:1)
[39] = SPP.14712, Concomitant (ME:SM = 1:2)
[40] = SPP.14712, Concomitant (ME:SM = 1:4)
[41] = SPP.14712, Concomitant (ME:SM = 2:1)

Measured: MIC

C[C@@H](O)[C@H]1C(=O)N2C(C(=O)O)=C(S[C@@H]3CN[C@H](C(=O)N(C)C)C3)[C@H](C)[C@H]12 [MEPM, meropenem]
0.5 µg/mL: [2]; [15] | [2]; [16] | [2]; [18] | [2]; SPP.13992, alone | [4]; Concomitant (ME:SM = 1:1) | [4]; Concomitant (ME:SM = 1:2) | [4]; Concomitant (ME:SM = 2:1) | [5]; [23] | [5]; [24] | [5]; [25] | Acinetobacter spp. 227-1; [27] | Acinetobacter spp. 227-1; [28] | Acinetobacter spp. 227-1; [30] | Acinetobacter spp. 256; [31] | Acinetobacter spp. 256; [32] | Acinetobacter spp. 256; [34] | [6]; [35] | [6]; [37] | [6]; alone, read-out: MIC | Acinetobacter spp. 14712; [38] | Acinetobacter spp. 14712; [39] | Acinetobacter spp. 14712; [41]
4 µg/mL: [3]; [22] | [7]; Concomitant (ME:SM = 2:1) | [7]; alone
0.031 µg/mL: E. coli ML1410; ML1410, alone, read-out: MIC
1 µg/mL: [3]; [21] | [4]; alone | [5]; [26] | Acinetobacter spp. 227-1; SPP.2271, alone | Acinetobacter spp. 256; SPP.256, alone | Acinetobacter spp. 14712; SPP.14712, alone
8 µg/mL: [7]; Concomitant (ME:SM = 1:1)
2 µg/mL: [3]; [19] | [3]; [20] | [7]; Concomitant (ME:SM = 1:2) | [7]; Concomitant (ME:SM = 1:4)
≤ 0.016 µg/mL: E. coli ML1410; [8] | E. coli ML1410; [9] | E. coli ML1410; [10] | E. coli ML1410; [11]
0.125 µg/mL: [1]; Acinetobacter | [1]; Concomitant (ME:SM = 1:2) | [5]; SPP.13382 | [6]
0.25 µg/mL: [1]; [12] | [1]; [13] | [1]; [14] | [2]; [17] | [4]; Concomitant (ME:SM = 1:4) | Acinetobacter spp. 227-1; [29] | Acinetobacter spp. 256; [33] | [6]; [36] | Acinetobacter spp. 14712; [40]
32 µg/mL: [3]; SPP.13982, alone

C[C@H]1C=C(c2csc(SC3=C(C(=O)O)N4C(=O)[C@H]([C@@H](C)O)[C@H]4[C@H]3C)n2)CN1 [SM, (4R,5S,6S)-6-[(1R)-1-Hydroxyethyl]-4-methyl-3-({4-[(5S)-5-methyl-2,5-dihydro-1H-pyrrol-3-yl]-1,3-thiazol-2-yl}sulfanyl)-7-oxo-1-azabicyclo[3.2.0]hept-2-ene-2-carboxylic acid]
≤ 0.016 µg/mL: E. coli ML1410; [8]
0.5 µg/mL: [1]; Acinetobacter, Concomitant (ME:SM = 1:4), read-out: MIC | [1]; [14] | [2]; [15] | [4]; Concomitant (ME:SM = 1:1) | [5]; [23] | [5]; SPP.13382, Concomitant (ME:SM = 1:4), read-out: MIC | [5]; [26] | Acinetobacter spp. 227-1; [27] | Acinetobacter spp. 256; [31] | [6]; [35] | [6]; [36] | [6]; Concomitant (ME:SM = 1:4), read-out: MIC | Acinetobacter spp. 14712; [38]
1 µg/mL: [2]; [16] | [2]; [17] | [4]; Concomitant (ME:SM = 1:2) | [4]; Concomitant (ME:SM = 1:4) | [5]; [24] | Acinetobacter spp. 227-1; [28] | Acinetobacter spp. 227-1; [29] | Acinetobacter spp. 256; [32] | Acinetobacter spp. 256; [33] | Acinetobacter spp. 256; SPP.256, alone | Acinetobacter spp. 14712; [39] | Acinetobacter spp. 14712; [40]
≤ 0.031 µg/mL: E. coli ML1410; [9]
32 µg/mL: [7]; alone
0.125 µg/mL: E. coli ML1410; ML1410, Concomitant (CPFX:SM = 1:1), E. coli ML1410, read-out: MIC concomitant | E. coli ML1410; ML1410, Concomitant (IPM:SM = 1:1), read-out: MIC | E. coli ML1410; ML1410, Concomitant (PAPM:SM = 1:1), E. coli ML1410, read-out: MIC concomitant | E. coli ML1410; ML1410, Concomitant (PIPC:SM = 1:1), E. coli ML1410, read-out: MIC concomitant | [1]; [13]
0.063 µg/mL: E. coli ML1410; ML1410, Concomitant (AZT:SM = 1:1), E. coli ML1410, read-out: MIC concomitant | E. coli ML1410; ML1410, Concomitant (BIPM:SM = 1:1), E. coli ML1410, read-out: MIC concomitant | E. coli ML1410; ML1410, Concomitant (CAZ:SM = 1:1), E. coli ML1410, read-out: MIC concomitant
4 µg/mL: [3]; [20] | [3]; [21] | [7]; Concomitant (ME:SM = 1:2)
2 µg/mL: [2]; SPP.13992, alone | [3]; [19] | [3]; [22] | [4]; alone | Acinetobacter spp. 227-1; SPP.2271, alone | [6]; alone, read-out: MIC | [7]; Concomitant (ME:SM = 2:1) | Acinetobacter spp. 14712; SPP.14712, alone
0.031 µg/mL: E. coli ML1410; ML1410, Concomitant (DRPM:SM = 1:1), E. coli ML1410, read-out: MIC concomitant
≤ 0.063 µg/mL: E. coli ML1410; [10]
0.25 µg/mL: E. coli ML1410; ML1410, alone, read-out: MIC | E. coli ML1410; ML1410, drug alone, E. coli ML1410, read-out: MIC alone | [1]; [12] | [1]; Acinetobacter, Concomitant (ME:SM = 1:2), read-out: MIC | [2]; [18] | [4]; Concomitant (ME:SM = 2:1) | [5]; [25] | Acinetobacter spp. 227-1; [30] | Acinetobacter spp. 256; [34] | [6]; [37] | Acinetobacter spp. 14712; [41]
≤ 0.008 µg/mL: E. coli ML1410; [11]
8 µg/mL: [3]; SPP.13982, alone | [7]; Concomitant (ME:SM = 1:1) | [7]; Concomitant (ME:SM = 1:4)
